Values of other authors, collected in US11576926B2, “Composition for use in the prevention and/or treatment of epistaxis” (priority 2018, dated 2023).

Key:
[1] = test system: TPA (12-O-tetradecanoylphorbol-13-acetate) induced inflammatory response; details: topical, 30 minutes before TPA
[2] = test system: seasonal allergic rhinitis; details: 800 mg/day in addition to the classic anti-allergy treatment; 112 patients
fibroblast = details: both in vitro and in vivo
dry rhinitis = details: 20 ml spray with 5% dexpanthenol; vs placebo
[3] = test system: epithelial tissue in mouse models; details: dexpanthenol cream; after 20 days; vs control group
[4] = test system: ultraviolet-induced erythema; details: in vivo
rhinitis sicca syndrome = details: nasal spray; 0.5% ectoin, or 0.5% ectoin and 1.0% dexpanthenol
[5] = test system: corneal wounds in rat models with type 1 diabetes; details: solution containing 0.3% HA
[6] = test system: nasal mucosa after surgery in the nasal cavity
Escherichia coli = details: silver ions
Staphylococcus aureus = details: silver ions
[7] = test system: non-allergic and idiopathic rhinitis
[8] = patients who received the therapy, 90 patients

For Vitamin E, the “activity of myeloperoxidase (MPO)” value [1] is given as “inhibits”, the “activity of xanthine oxidase (XO)” value [1] is given as “inhibits” and the “lipid peroxidation (LPO)” value [1] is given as “inhibits”. The “release of hydrogen peroxide” value [1] was “inhibits” and the “nasal symptoms associated with allergic rhinitis” value [2] was “reduction of the nasal symptoms”.

For CC(C)(CO)[C@@H](O)C(=O)NCCCO [dexpanthenol, Dexpanthenol], the fibroblast proliferation (fibroblast) is given as “activate fibroblast proliferation”, the “symptoms of rhinitis (scabs, nasal respiratory capacity)” value (dry rhinitis) is given as “improving the symptoms of rhinitis” and the “regeneration rate of epithelial tissue” value [3] is given as “statistically higher than the control group”. For the same molecule, the “effect on experimental ultraviolet-induced erythema” value [4] was “anti-inflammatory effect”, the “epidermal regeneration (transepidermal water loss monitoring)” value (epidermal wounds; compared to placebo) was “significant acceleration of epidermal regeneration” and the “erythema of epidermal wounds” value (epidermal wounds; dexpanthenol emulsion) was “reduction in erythema”. For the same molecule, the “re-epithelialization in wound healing” value (epidermal wounds; monitored by transepidermal water loss) was “Accelerated re-epithelialization”.

In the case of CC1=NCC[C@@H](C(=O)O)N1 [ectoin], the “nasal obstruction, rhinorrhea and crusting” value (rhinitis sicca syndrome) is given as “decreased significantly” and the “recurrent nose bleeding, pharyngitis, exudate viscosity during inflammatory phenomena and cacosmia” value (rhinitis sicca syndrome) is given as “this did not occur”.

For Hyaluronic acid, the “re-epithelialization of corneal wounds” value [5] is listed as “statistically significant in enhancing re-epithelialization”, the “formation of bloody scabs” value ([6]; after the first week of treatment) is listed as “prevented excessive formation of bloody scabs” and the tolerability ([6]; all trial participants) is listed as “well tolerated”. The “recovery (healing of the nasal mucosa)” value ([6]; cream with 2 mg HA per g, 6-week treatment, vs ointments based on plant extracts, 56 patients) was “recover faster and more effectively than the ointment group” and the adverse effects ([6]; during the trial) was “No adverse effects were reported”.

For [Ag] [silver, Silver], the “antibacterial effect (structural changes, permeability, ion transport)” value (Escherichia coli) is listed as “eventually leading to death”, the “antibacterial effect (structural changes, permeability, ion transport)” value (Staphylococcus aureus) is listed as “eventually leading to death” and the “improvement in the condition of the nasal epithelium, share of patients” value ([7]; human, in vivo) is listed as “over 70%”. The “treatment effect compared to placebo” value ([7]; human, in vivo) was “statistically significant compared to placebo”, the “improvement in the nasal decongestion, share of cases” value [7, 8] was 80% and the “improvement in the rhinorrhea, share of cases” value [7, 8] was 93%.
